Test results taken from publication PMC10412597, “Small molecule branched-chain ketoacid dehydrogenase kinase (BDK) inhibitors with opposing effects on BDK protein levels” (Nature Communications, 2023).

What was measured:
Design in all cases: Cerep Bioprint off-target panel, functional receptor agonism or antagonism
Muscarinic 1 = molecular target: T1, Muscarinic 1 (Homo sapiens, UniProt P11229)
T1 construct: gene CHRM1
T1 sequence (P11229 1-460): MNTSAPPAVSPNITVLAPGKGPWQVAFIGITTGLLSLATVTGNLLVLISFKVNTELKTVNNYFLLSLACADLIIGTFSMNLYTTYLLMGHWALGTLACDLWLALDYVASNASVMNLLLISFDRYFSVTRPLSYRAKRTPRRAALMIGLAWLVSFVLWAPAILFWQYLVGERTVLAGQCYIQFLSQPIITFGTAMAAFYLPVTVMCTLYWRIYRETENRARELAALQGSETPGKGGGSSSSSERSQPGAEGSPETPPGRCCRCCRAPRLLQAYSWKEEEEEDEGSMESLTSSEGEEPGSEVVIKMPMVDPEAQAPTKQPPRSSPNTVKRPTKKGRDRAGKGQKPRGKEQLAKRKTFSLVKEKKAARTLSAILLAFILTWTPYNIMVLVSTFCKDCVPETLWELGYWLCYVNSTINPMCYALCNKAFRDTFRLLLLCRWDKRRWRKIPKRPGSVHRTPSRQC
Description: (§1) To discover a potent and selective BDK inhibitor, a subset of the Pfizer compound collection was screened. […] Off target activity was assessed in both CEREP and kinase panels (Supplementary Tables 2, 3).

Histamine H3 = molecular target: T2, Histamine H3 (Homo sapiens, UniProt Q9Y5N1); settings: agonist
T2 construct: gene HRH3
Description: as §1

Histamine H1 = molecular target: T3, Histamine H1 (Homo sapiens, UniProt P35367)
T3 construct: gene HRH1
Description: as §1

[1] = molecular target: T4, Corticotrophin Releasing Factor 1 (CRF1) Receptor (Homo sapiens, UniProt P34998)
T4 construct: gene CRHR1
T4 sequence (P34998 1-415): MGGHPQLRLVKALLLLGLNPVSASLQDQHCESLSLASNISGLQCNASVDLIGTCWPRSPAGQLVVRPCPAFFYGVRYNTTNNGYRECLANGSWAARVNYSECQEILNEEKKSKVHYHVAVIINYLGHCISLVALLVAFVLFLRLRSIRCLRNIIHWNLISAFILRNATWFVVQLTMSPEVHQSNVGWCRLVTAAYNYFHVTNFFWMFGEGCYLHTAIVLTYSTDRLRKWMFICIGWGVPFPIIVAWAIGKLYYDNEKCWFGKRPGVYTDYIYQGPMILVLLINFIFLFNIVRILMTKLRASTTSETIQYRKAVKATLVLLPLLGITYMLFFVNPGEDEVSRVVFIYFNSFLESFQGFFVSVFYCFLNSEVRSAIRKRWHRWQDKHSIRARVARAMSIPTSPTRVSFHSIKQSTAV
Description: as §1

Neurokinin Nk1 = molecular target: T5, Neurokinin Nk1 (Homo sapiens, UniProt P25103); settings: agonist
T5 construct: gene TACR1
Description: as §1

Endothelin A = molecular target: T6, Endothelin A (Homo sapiens, UniProt P25101); settings: agonist
T6 construct: gene EDNRA
Description: as §1

Muscarinic 2 = molecular target: T7, Muscarinic 2 (Homo sapiens, UniProt P08172)
T7 construct: gene CHRM2
T7 sequence (P08172 1-466): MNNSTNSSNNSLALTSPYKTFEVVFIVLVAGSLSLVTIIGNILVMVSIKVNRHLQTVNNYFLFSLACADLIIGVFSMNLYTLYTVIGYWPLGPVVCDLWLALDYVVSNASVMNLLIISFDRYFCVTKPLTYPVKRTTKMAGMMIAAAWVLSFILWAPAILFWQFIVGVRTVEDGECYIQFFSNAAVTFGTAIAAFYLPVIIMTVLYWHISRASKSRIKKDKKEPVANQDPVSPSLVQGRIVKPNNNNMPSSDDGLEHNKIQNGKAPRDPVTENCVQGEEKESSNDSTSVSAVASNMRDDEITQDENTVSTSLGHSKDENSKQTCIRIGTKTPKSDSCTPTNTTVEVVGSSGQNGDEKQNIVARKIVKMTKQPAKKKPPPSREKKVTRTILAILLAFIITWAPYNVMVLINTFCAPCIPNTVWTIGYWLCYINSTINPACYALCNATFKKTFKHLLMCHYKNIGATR
Description: as §1

[2] = molecular target: T8, Adrenergic Alpha 1a Adrenoceptor (Homo sapiens, UniProt P35348)
T8 construct: gene ADRA1A
T8 sequence (P35348 1-466): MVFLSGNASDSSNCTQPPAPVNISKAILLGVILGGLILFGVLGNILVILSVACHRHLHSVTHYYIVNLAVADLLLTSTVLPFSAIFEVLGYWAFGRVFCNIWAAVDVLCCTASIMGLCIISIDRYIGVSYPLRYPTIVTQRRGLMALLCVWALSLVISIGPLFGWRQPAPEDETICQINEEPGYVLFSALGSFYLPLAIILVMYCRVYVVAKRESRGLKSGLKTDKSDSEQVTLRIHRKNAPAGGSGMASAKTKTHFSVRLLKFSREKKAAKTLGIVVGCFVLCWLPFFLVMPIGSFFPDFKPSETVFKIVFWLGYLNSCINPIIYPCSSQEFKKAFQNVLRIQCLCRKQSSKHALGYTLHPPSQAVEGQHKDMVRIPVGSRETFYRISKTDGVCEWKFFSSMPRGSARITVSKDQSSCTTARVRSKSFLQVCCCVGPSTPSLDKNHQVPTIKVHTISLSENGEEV
Description: as §1

[3] = molecular target: T9, Serotonin 5-HT1a Receptor (Homo sapiens, UniProt P08908); settings: agonist
T9 construct: gene HTR1A
Description: as §1

Dopamine 2S = molecular target: T10, Dopamine 2S (Homo sapiens, UniProt P14416)
T10 construct: gene DRD2; short isoform (2S)
Description: as §1

Vasopressin 1a = molecular target: T11, Vasopressin 1a (Homo sapiens, UniProt P37288); settings: agonist
T11 construct: gene AVPR1A
Description: as §1

T3 sequence (P35367 whole entry): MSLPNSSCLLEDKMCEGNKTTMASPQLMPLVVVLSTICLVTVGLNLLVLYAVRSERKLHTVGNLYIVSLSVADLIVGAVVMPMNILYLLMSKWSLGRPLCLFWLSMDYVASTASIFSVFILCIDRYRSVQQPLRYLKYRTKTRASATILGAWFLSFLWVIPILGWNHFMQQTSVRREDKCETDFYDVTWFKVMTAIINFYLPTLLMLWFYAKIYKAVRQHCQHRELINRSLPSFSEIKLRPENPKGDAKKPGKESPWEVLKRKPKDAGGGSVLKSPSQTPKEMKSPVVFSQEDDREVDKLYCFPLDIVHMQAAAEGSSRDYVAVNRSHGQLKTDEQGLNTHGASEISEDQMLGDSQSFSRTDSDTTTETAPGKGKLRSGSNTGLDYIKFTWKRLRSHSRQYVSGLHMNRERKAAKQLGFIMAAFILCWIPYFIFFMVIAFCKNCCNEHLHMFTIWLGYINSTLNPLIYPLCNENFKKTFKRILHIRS
T10 sequence (P14416 whole entry, canonical isoform): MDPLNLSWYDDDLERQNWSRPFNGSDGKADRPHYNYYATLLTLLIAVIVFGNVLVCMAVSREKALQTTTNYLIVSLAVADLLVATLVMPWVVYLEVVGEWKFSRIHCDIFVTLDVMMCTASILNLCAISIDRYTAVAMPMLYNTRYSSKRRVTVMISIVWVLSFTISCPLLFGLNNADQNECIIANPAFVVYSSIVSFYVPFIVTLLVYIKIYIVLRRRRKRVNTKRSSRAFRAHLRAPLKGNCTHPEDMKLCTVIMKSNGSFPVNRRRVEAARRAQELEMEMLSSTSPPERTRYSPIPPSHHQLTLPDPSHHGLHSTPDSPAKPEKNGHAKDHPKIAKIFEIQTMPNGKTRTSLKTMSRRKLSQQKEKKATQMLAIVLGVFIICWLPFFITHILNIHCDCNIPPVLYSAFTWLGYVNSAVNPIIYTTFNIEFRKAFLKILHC
T11 sequence (P37288 whole entry): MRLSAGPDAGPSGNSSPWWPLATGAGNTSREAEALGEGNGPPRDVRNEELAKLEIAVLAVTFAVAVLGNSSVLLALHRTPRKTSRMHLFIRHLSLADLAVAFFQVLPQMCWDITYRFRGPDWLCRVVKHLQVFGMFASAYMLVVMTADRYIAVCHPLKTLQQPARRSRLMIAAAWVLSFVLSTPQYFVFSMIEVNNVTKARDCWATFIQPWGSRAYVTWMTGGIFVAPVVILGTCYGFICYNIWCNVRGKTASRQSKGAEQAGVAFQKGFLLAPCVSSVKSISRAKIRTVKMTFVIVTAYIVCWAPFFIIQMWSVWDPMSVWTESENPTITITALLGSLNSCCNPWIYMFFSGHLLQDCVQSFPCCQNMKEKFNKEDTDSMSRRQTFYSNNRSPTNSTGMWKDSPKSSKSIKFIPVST
T6 sequence (P25101 whole entry): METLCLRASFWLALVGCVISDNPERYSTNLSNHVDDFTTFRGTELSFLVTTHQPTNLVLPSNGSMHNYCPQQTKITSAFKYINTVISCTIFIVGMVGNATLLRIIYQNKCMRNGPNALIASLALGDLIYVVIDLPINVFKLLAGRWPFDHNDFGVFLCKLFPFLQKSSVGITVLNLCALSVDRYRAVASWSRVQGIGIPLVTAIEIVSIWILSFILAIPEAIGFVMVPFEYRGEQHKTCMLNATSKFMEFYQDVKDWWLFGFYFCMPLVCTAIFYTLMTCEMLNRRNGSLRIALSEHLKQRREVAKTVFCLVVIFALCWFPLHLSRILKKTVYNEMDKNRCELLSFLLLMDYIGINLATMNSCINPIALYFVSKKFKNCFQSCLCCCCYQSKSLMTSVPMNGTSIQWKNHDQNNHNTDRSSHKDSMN
T2 sequence (Q9Y5N1 whole entry): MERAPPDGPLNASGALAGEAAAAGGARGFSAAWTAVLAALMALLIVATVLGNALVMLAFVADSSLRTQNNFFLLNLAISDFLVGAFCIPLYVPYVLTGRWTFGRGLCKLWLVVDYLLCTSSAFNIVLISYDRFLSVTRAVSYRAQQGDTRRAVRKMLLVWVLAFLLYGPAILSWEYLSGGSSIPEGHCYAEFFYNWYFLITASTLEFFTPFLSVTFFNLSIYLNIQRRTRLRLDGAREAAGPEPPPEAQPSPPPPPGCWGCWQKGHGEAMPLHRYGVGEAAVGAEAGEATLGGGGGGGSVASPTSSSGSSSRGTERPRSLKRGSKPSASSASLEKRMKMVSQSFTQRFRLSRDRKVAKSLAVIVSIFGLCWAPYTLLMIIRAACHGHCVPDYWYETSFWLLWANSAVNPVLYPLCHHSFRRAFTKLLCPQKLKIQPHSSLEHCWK
T5 sequence (P25103 whole entry): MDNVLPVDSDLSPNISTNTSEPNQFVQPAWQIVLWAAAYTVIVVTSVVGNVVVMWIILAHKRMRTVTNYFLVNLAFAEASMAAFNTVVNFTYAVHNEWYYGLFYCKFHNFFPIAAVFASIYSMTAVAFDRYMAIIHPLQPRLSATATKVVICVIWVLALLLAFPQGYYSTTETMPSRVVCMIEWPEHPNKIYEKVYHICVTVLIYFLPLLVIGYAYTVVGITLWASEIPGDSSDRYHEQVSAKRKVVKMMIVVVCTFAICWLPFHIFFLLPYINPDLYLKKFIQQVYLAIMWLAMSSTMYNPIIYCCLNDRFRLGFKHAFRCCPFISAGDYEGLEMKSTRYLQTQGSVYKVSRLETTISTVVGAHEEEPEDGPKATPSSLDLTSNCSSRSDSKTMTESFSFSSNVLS
T9 sequence (P08908 whole entry): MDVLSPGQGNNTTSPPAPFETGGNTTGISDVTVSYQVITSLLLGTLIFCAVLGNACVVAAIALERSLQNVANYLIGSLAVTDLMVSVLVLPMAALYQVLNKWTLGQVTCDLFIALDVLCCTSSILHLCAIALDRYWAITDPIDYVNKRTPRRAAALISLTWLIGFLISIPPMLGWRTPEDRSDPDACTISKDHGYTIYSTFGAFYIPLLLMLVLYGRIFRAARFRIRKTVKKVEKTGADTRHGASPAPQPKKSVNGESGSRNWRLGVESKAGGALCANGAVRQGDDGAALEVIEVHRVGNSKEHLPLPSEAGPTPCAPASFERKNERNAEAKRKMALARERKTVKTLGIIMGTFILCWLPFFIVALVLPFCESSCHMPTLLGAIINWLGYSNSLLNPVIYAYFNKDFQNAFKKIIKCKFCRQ

O=C(O)c1sc2cc(F)sc2c1Cl [PF-07208254, 3-chloro-5-fluorothieno[3,2-b]thiophene-2-carboxylic acid]
% (agonism) PF-07208254 (Muscarinic 1; 100 µM, agonist): -1%
% Inhibition (antagonism) PF-07208254 (Muscarinic 1; 100 µM, antagonist): 0%
% (agonism) PF-07208254 (Histamine H3; 100 µM): 15%
% (agonism) PF-07208254 (Histamine H1; 100 µM, agonist): -1%
% Inhibition (antagonism) PF-07208254 (Histamine H1; 100 µM, antagonist): 17%
% (agonism) PF-07208254 ([1]; 100 µM, agonist): -2%
% Inhibition (antagonism) PF-07208254 ([1]; 100 µM, antagonist): 39%
% (agonism) PF-07208254 (Neurokinin Nk1; 100 µM): -3%
% (agonism) PF-07208254 (Endothelin A; 100 µM): 4%
% (agonism) PF-07208254 (Muscarinic 2; 100 µM, agonist): 39%
% Inhibition (antagonism) PF-07208254 (Muscarinic 2; 100 µM, antagonist): -7%
% (agonism) PF-07208254 ([2]; 100 µM, agonist): 8%
% Inhibition (antagonism) PF-07208254 ([2]; 100 µM, antagonist): 21%
% (agonism) PF-07208254 ([3]; 100 µM): -1%
% (agonism) PF-07208254 (Dopamine 2S; 100 µM, agonist): -29%
% Inhibition (antagonism) PF-07208254 (Dopamine 2S; 100 µM, antagonist): -7%
% (agonism) PF-07208254 (Vasopressin 1a; 100 µM): 16%

CCC1(COc2ccc(-c3csc(-c4ccccc4C(=O)O)n3)cn2)CC1 [PF-07247685, 2-(4-{6-[(1-ethylcyclopropyl)methoxy]pyridin-3-yl}-1,3-thiazol-2-yl)benzoic acid]
% (agonism) PF-07247685 (Muscarinic 1; 10 µM, agonist): 1%
% Inhibition (antagonism) PF-07247685 (Muscarinic 1; 10 µM, antagonist): 9%
% (agonism) PF-07247685 (Histamine H3; 10 µM): 4%
% (agonism) PF-07247685 (Histamine H1; 10 µM, agonist): -5%
% Inhibition (antagonism) PF-07247685 (Histamine H1; 10 µM, antagonist): -2%
% (agonism) PF-07247685 ([1]; 10 µM, agonist): 4%
% Inhibition (antagonism) PF-07247685 ([1]; 10 µM, antagonist): 11%
% (agonism) PF-07247685 (Neurokinin Nk1; 10 µM): -4%
% (agonism) PF-07247685 (Endothelin A; 10 µM): -4%
% (agonism) PF-07247685 (Muscarinic 2; 10 µM, agonist): 3%
% Inhibition (antagonism) PF-07247685 (Muscarinic 2; 10 µM, antagonist): 2%
% (agonism) PF-07247685 ([2]; 10 µM, agonist): 1%
% Inhibition (antagonism) PF-07247685 ([2]; 10 µM, antagonist): 14%
% (agonism) PF-07247685 ([3]; 10 µM): -1%
% (agonism) PF-07247685 (Dopamine 2S; 10 µM, agonist): -17%
% Inhibition (antagonism) PF-07247685 (Dopamine 2S; 10 µM, antagonist): -7%
% (agonism) PF-07247685 (Vasopressin 1a; 10 µM): -1%
